Patent EP0207913A1, “Catechol carboxamides, process for their preparation, intermediates and a pharmaceutical preparation” (priority 1985, dated 1987)
Read-outs that look alike come from different tables or passages of the source.

System: apomorphine syndrome
Assay: In vivo test: apomorphine syndrome inhibition
Design: species or system Male Sprague-Dawley rats
Conditions: ip, rat, compound injected 60 min prior to apomorphine hydrochloride 1 mg/kg s.c.
Protocol: Male Sprague-Dawley rats (weighing 225-275 g) were used. […] The compounds were injected 60 min. prior to apomorphine hydrochloride (1 mg/kg) which was injected subcutaneously (s.c.) into the neck.
Directly after injection, the animals were placed in the cages, one in each cage. Scoring of the stereotypies were performed by two separate methods. The first scoring system was a modified version of the system introduced by Costall and Naylor (1973). The strength of the stereotype was scored on a 0-3 scale as follows:
In the second system the number of animals displaying hyperactivity caused by apomorphine were scored. Each group consisted of 6-8 animals. Saline controls were always run simultaneously. […] ED50's of the second scoring system are the doses which reduce the number of animals showing hyperactivity by 50 % over the observation period of ? min. The ED50 were calculated from log dose-response curves by the method of least squares from 4-6 dose levels with 6-8 animals per dose level.

[1] = dose reducing number of animals showing hyperactivity by 50 %, read-out: Reduction of hyperactivity ED50
[2] = dose reducing strength of stereotypies (0-3 scale) by 50 % over 60 min, read-out: Reduction of stereotypies ED50

Compound	ED50 [1]	ED50 [2]
CCN1CCCC1CNC(=O)c1cc(Br)cc(OC)c1OC (centres unmarked)	0.0032 µmol/kg	0.13 µmol/kg
C=CCN1CCCC1CNC(=O)c1cc(Br)cc(OC)c1OC (centres unmarked)	0.02 µmol/kg	0.12 µmol/kg
CCN1CCCC1CNC(=O)c1c(O)c(Cl)cc(Cl)c1OC (centres unmarked) [a compound of EP 60235]	0.11 µmol/kg	2.4 µmol/kg
CCN1CCCC1CNC(=O)c1cc(Br)ccc1OC (centres unmarked) [ex 5 of US 3 342 (26)]	2.5 µmol/kg	6.5 µmol/kg
